Reference: patent US11230543B2, “Biaryl monobactam compounds and methods of use thereof for the treatment of bacterial infections” (priority 2015, dated 2022)
Counter-ions that a name gives are not always drawn.

Tests used:
[1] = system: Klebsiella pneumoniae expressing KPC-1 (CL6569); experiment: Antibiotic activity: growth inhibitory concentration (OD600), Klebsiella pneumoniae CL6569; type: cell-based; settings: lowest concentration inhibiting 95% of bacterial growth; in the presence of β lactamase inhibitor Relebactam 4 μg/mL; 35±2° C. for 22 hours; tested range 100 μM to 0.098 μM
Method: (§1) Antibiotic Activity: Determination of Growth Inhibitory Concentration
(§2) The concentrations of compounds required to inhibit the growth of various strains of bacteria were determined in an assay that assessed bacterial growth by measuring optical density at 600 nm (OD600). The bacterial strains tested included the clinical strains Escherichia coli expressing NDM-1 (CLB30016), Klebsiella pneumoniae expressing KPC-1 (CL6569), Acinetobacter baumannii expressing TEM-1, AmpC, and Oxa-24/40 (CL6188) and Pseudomonas aeruginosa expressing AmpC (CL5701). All compounds were tested in the presence of a β lactamase inhibitor (BLi, Relebactam) in 384-well microplates. The clinical strains were stored as frozen single use stocks, thawed and diluted into 1.1× cation-adjusted Mueller-Hinton II broth to achieve approximately 2×10^5 CFU/mL. Test compounds were dissolved in DMSO and diluted 1:50 in the assay, resulting in a final concentration range of 100 μM to 0.098 μM. On the day of the assay, 1 μL of test compound was added to the plate followed by 4 μL of 50 μg/mL BLi in MOPS buffer and 45 μL of diluted bacteria. Plates were centrifuged at 1000 rpm for 30 seconds, shaken at approximately 800 rpm for 1 minute, and incubated at 35±2° C. for 22 hours. The concentration of BLi used in the assay was 4 μg/mL. At the end of the incubation, absorbance at 600 nm was determined using a spectrophotometer. Inhibition was quantitated by identifying the lowest concentration of test compound that was required to inhibit 95% of the growth of the bacteria. The results for Examples 1-126 are reported in Table I, expressed as the concentration of compound that inhibited 95% of bacterial growth (Minimum Inhibitory Threshold Concentration; MITC95).

[2] = system: Pseudomonas aeruginosa expressing AmpC (CL5701); experiment: Antibiotic activity: growth inhibitory concentration (OD600), Pseudomonas aeruginosa CL5701; type: cell-based; settings: lowest concentration inhibiting 95% of bacterial growth; in the presence of β lactamase inhibitor Relebactam 4 μg/mL; 35±2° C. for 22 hours; tested range 100 μM to 0.098 μM
Method: as §1, §2

| Compound | KP_CL6569 MITC95 [1] [µM] | PA_CL5701 MITC95 [2] [µM] |
| --- | --- | --- |
| C[C@H]1[C@H](NC(=O)/C(=N\O[C@@H](COc2ccc(-c3cn(CCCN)[n+](C)c3)cc2)C(=O)O)c2csc(N)n2)C(=O)N1S(=O)(=O)[O-] [Example 7, (2S,3S)-3-((Z)-2-(((S)-2-(4-(1-(3-aminopropyl)-2-methyl-1H-pyrazol-2-ium-4-yl)phenoxy)-1-carboxyethoxy)imino)-2-(2-aminothiazol-4-yl)acetamido)-2-methyl-4-oxoazetidine-1-sulfonate] | 1.563 | 12.5 |
| C[C@@H]1[C@H](NC(=O)/C(=N\O[C@@H](COc2ccc(-c3cn(CCCN)[n+](C)c3)cc2)C(=O)O)c2csc(N)n2)C(=O)N1S(=O)(=O)[O-] [Example 9, (2R,3S)-3-((Z)-2-(((S)-2-(4-(1-(3-aminopropyl)-2-methyl-1H-pyrazol-2-ium-4-yl)phenoxy)-1-carboxyethoxy)imino)-2-(2-aminothiazol-4-yl)acetamido)-2-methyl-4-oxoazetidine-1-sulfonate] | 0.3906 | 6.25 |
| CC1(C)[C@H](NC(=O)/C(=N\O[C@@H](COc2ccc(-c3cn(CCCN)cn3)cc2)C(=O)O)c2csc(N)n2)C(=O)N1OS(=O)(=O)O [Example 10, (S)-3-(4-(1-(3-Aminopropyl)-1H-imidazol-4-yl)phenoxy)-2-((((Z)-1-(2-aminothiazol-4-yl)-2-(((S)-2,2-dimethyl-4-oxo-1-(sulfooxy)azetidin-3-yl)amino)-2-oxoethylidene)amino)oxy)propanoic acid] | 0.3906 | 6.25 |
| C[n+]1cc(-c2ccc(OC[C@H](O/N=C(\C(=O)N[C@@H]3C(=O)N(OS(=O)(=O)[O-])C3(C)C)c3nc(N)sc3Cl)C(=O)O)cc2)cn1CCCN [Example 11, (S)-3-((Z)-2-(2-Amino-5-chlorothiazol-4-yl)-2-(((S)-2-(4-(1-(3-aminopropyl)-2-methyl-1H-pyrazol-2-ium-4-yl)phenoxy)-1-carboxyethoxy)imino)acetamido)-2,2-dimethyl-4-oxoazetidin-1-yl sulfate] | 0.7813 | 3.125 |
| C[n+]1cc(-c2ccc(OC[C@H](O/N=C(\C(=O)N[C@@H]3C(=O)N(OS(=O)(=O)[O-])C3(C)C)c3nsc(N)n3)C(=O)O)cc2)cn1CCCN [Example 12, (S)-3-((Z)-2-(5-Amino-1,2,4-thiadiazol-3-yl)-2-(((S)-2-(4-(1-(3-aminopropyl)-2-methyl-1H-pyrazol-2-ium-4-yl)phenoxy)-1-carboxyethoxy)imino)acetamido)-2,2-dimethyl-4-oxoazetidin-1-yl sulfate] | 0.3906 | 3.125 |
| CC1(C)[C@H](NC(=O)/C(=N\O[C@@H](COc2ccc(-c3cnn(CCCN)c3)nc2)C(=O)O)c2csc(N)n2)C(=O)N1OS(=O)(=O)O.O=C(O)C(F)(F)F [Example 13, 3-(4-(5-((S)-2-((((Z)-1-(2-aminothiazol-4-yl)-2-(((S)-2,2-dimethyl-4-oxo-1-(sulfooxy)azetidin-3-yl)amino)-2-oxo-ethylidene)amino)oxy)-2-carboxyethoxy)pyridin-2-yl)-1H-pyrazol-1-yl)propan-1-aminium 2,2,2-trifluoroacetate] | 0.7813 | 12.5 |
| CC1(C)[C@H](NC(=O)/C(=N\O[C@@H](COc2ccc(-c3cnn(CC[N+]4(C)CCOCC4)c3)cc2)C(=O)O)c2csc(N)n2)C(=O)N1OS(=O)(=O)O.O=C([O-])C(F)(F)F [Example 14, 4-(2-(4-(4-((S)-2-((((Z)-1-(2-aminothiazol-4-yl)-2-(((S)-2,2-dimethyl-4-oxo-1-(sulfooxy)azetidin-3-yl)amino)-2-oxoethylidene)amino)oxy)-2-carboxyethoxy)phenyl)-1H-pyrazol-1-yl)ethyl)-4-methylmorpholin-4-ium 2,2,2-trifluoroacetate] | 0.7813 | 12.5 |
| C[n+]1cc(-c2ccc(OC[C@H](O/N=C(\C(=O)N[C@@H]3C(=O)N(OS(=O)(=O)O)C3(C)C)c3csc(N)n3)C(=O)O)c(F)c2)cn1CCCN [Example 15, 1-(3-aminopropyl)-4-(4-((S)-2-((((Z)-1-(2-aminothiazol-4-yl)-2-(((S)-2,2-dimethyl-4-oxo-1-(sulfooxy)azetidin-3-yl)amino)-2-oxo-ethylidene)amino)oxy)-2-carboxyethoxy)-3-fluorophenyl)-2-methyl-1H-pyrazol-2-ium, TFA salt (1:1)] | 0.3906 | 6.25 |
| C[n+]1cc(-c2ccc(OC[C@H](O/N=C(\C(=O)N[C@@H]3C(=O)N(OS(=O)(=O)[O-])C3(C)C)c3csc(N)n3)C(=O)O)cc2)cn1CC1CNC1 [Example 16, (S)-3-((Z)-2-(2-aminothiazol-4-yl)-2-(((S)-2-(4-(1-(azetidin-3-ylmethyl)-2-methyl-1H-pyrazol-2-ium-4-yl)phenoxy)-1-carboxy-ethoxy)imino)acetamido)-2,2-dimethyl-4-oxoazetidin-1-yl sulfate] | 0.3906 | 3.125 |
| C[n+]1cc(-c2ccc(OC[C@H](O/N=C(\C(=O)N[C@@H]3C(=O)N(OS(=O)(=O)[O-])C3(C)C)c3csc(N)n3)C(=O)O)cc2)cn1CCN [Example 17, (S)-3-((Z)-2-(((S)-2-(4-(1-(2-aminoethyl)-2-methyl-1H-pyrazol-2-ium-4-yl)phenoxy)-1-carboxyethoxy)imino)-2-(2-aminothiazol-4-yl)acetamido)-2,2-dimethyl-4-oxoazetidin-1-yl sulfate] | 0.3906 | 6.25 |
| C[n+]1c(-c2ccc(OC[C@H](O/N=C(\C(=O)N[C@@H]3C(=O)N(OS(=O)(=O)O)C3(C)C)c3csc(N)n3)C(=O)O)cc2)ccn1CCCN.O=C([O-])C(F)(F)F [Example 18, 1-(3-aminopropyl)-3-(4-((S)-2-((((Z)-1-(2-aminothiazol-4-yl)-2-(((S)-2,2-dimethyl-4-oxo-1-(sulfooxy)azetidin-3-yl)amino)-2-oxo-ethylidene)amino)oxy)-2-carboxyethoxy)phenyl)-2-methyl-1H-pyrazol-2-ium 2,2,2-trifluoroacetate] | 0.3906 | 6.25 |
| Cc1cn(CCCN)[n+](C)c1-c1ccc(OC[C@H](O/N=C(\C(=O)N[C@@H]2C(=O)N(OS(=O)(=O)O)C2(C)C)c2csc(N)n2)C(=O)O)cc1.O=C([O-])C(F)(F)F [Example 19, 1-(3-aminopropyl)-3-(4-((S)-2-((((Z)-1-(2-aminothiazol-4-yl)-2-(((S)-2,2-dimethyl-4-oxo-1-(sulfooxy)azetidin-3-yl)amino)-2-oxo-ethylidene)amino)oxy)-2-carboxyethoxy)phenyl)-2,4-dimethyl-1H-pyrazol-2-ium 2,2,2-trifluoroacetate] | 0.7813 | 12.5 |
| Cc1c(-c2ccc(OC[C@H](O/N=C(\C(=O)N[C@@H]3C(=O)N(OS(=O)(=O)O)C3(C)C)c3csc(N)n3)C(=O)O)cc2)c(C)[n+](C)n1CCCN.O=C([O-])C(F)(F)F [Example 20, 1-(3-aminopropyl)-4-(4-((S)-2-((((Z)-1-(2-aminothiazol-4-yl)-2-(((S)-2,2-dimethyl-4-oxo-1-(sulfooxy)azetidin-3-yl)amino)-2-oxo-ethylidene)amino)oxy)-2-carboxyethoxy)phenyl)-2,3,5-trimethyl-1H-pyrazol-2-ium 2,2,2-trifluoroacetate] | 0.3906 | 6.25 |
| Cc1cc(-c2ccc(OC[C@H](O/N=C(\C(=O)N[C@@H]3C(=O)N(OS(=O)(=O)O)C3(C)C)c3csc(N)n3)C(=O)O)cc2)n(CCCN)[n+]1C.O=C([O-])C(F)(F)F [Example 21, 1-(3-aminopropyl)-5-(4-((S)-2-((((Z)-1-(2-aminothiazol-4-yl)-2-(((S)-2,2-dimethyl-4-oxo-1-(sulfooxy)azetidin-3-yl)amino)-2-oxo-ethylidene)amino)oxy)-2-carboxyethoxy)phenyl)-2,3-dimethyl-1H-pyrazol-2-ium 2,2,2-trifluoroacetate] | 0.3906 | 12.5 |
| Cc1cc(-c2ccc(OC[C@H](O/N=C(\C(=O)N[C@@H]3C(=O)N(OS(=O)(=O)O)C3(C)C)c3csc(N)n3)C(=O)O)cc2)[n+](C)n1CCCN.O=C([O-])C(F)(F)F [Example 22, 1-(3-aminopropyl)-3-(4-((S)-2-((((Z)-1-(2-aminothiazol-4-yl)-2-(((S)-2,2-dimethyl-4-oxo-1-(sulfooxy)azetidin-3-yl)amino)-2-oxo-ethylidene)amino)oxy)-2-carboxyethoxy)phenyl)-2,5-dimethyl-1H-pyrazol-2-ium 2,2,2-trifluoroacetate] | 0.7813 | 25 |
